Some results are limits rather than exact numbers.

In general, IC50 refers to the concentration at which inhibition is half-maximal.

Sequence of IDH1 (R132H) (O75874 whole entry R132H): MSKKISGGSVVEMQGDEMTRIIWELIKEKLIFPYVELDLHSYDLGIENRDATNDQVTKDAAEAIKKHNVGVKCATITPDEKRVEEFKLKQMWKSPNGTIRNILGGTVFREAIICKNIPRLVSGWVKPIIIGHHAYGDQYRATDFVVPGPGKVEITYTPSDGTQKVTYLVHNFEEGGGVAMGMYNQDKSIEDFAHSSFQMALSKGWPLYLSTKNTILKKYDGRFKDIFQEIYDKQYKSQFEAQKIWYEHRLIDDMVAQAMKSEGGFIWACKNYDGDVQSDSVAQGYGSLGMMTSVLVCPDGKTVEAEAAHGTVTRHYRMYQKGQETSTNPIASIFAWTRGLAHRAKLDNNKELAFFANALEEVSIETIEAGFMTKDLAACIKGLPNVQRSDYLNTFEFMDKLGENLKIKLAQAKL

For this assay, the target named is IDH1 (R132H) (Homo sapiens (Human), UniProt O75874, R132H). Description: Enzyme assay, NADPH decrease detected with Diaphorase/Resazurin. Format: biochemical. As to conditions: 40 nM enzyme, 20 μM NADPH, incubated at 23° C. for 16 hours before α-KG; 12 concentrations. From the text:
Resazurin is a traditional redox dye, and after a redox reaction, it can be reduced from a blue resazurin without fluorescence to a pink fluorescent substance, resorufin, which can be measured and quantified with relative fluorescence unit (RFU) of fluorophotometer (Ex=530-570 nm, Em=590-620 nm). At present, resazurin is widely used for determining the viability of bacteria, cells, etc. and the enzyme activity detection of oxidoreductase. We detected the decrease of cofactor NADPH to determine the inhibitory activity of a compound against IDHm and detected the generation of cofactor NADPH to determine the inhibitory activity of a compound against IDH WT.
The compound was pre-incubated with IDHm and NADPH, and then the reaction was initiated by adding α-KG and performed for certain time under a linear condition.
Then, Diaphorase (lipoamide dehydrogenase) and the corresponding substrate Resazurin were added thereto for detection. Lipoamide dehydrogenase terminated the IDH2m reaction by decreasing the available cofactor NADPH, which oxidized NADPH to NADP, and reduced resazurin to high fluorescent resorufin. The amount of the remaining cofactor NADPH after a specific reaction time was quantified via an easily detectable fluorophore.
The specific operation was as follows: 2.5 μl of the compound diluted in a 3-fold gradient was added to a 384-well plate, followed by adding 5 μL of the reaction buffer (20 mM Tris-HCl, pH 7.5; 150 mM NaCl; 10 mM MgCl2; 0.4 mg/mL BSA (Bovine Serum Albumin) and 2 mM DTT (dithiothreitol)) containing 40 nM IDH1 (R132H/R132C) and 20 μM NADPH. Then, the above test mixture was incubated at 23° C. for 16 hours, and then 2.5 μL of the reaction buffer containing 4 mM α-KG was added to initiate the reaction. After they were incubated for 60 minutes at room temperature, 5 μL of the termination mixture (0.4 U/ml Diaphorase and 20 μM Resazurin) formulated with the reaction buffer was added to convert resazurin to resorufin, so as to measure the amount of the remaining NADPH. After incubating at 23° C. for 10 minutes, fluorescence values were determined through Flexstation 3 at Ex535/Em595. The enzyme activity of each compound was respectively determined at 12 concentrations, and the data were calculated using the software GraFit6.0 (Erithacus Software) to obtain the IC50 value of each compound.
(In general: Alamar Blue is a resazurin reagent that responds to reducing activity.)
`NS(=O)(=O)c1cccc(N(C(=O)CNS(=O)(=O)N2CC2)C(C(=O)NC2CC(F)(F)C2)c2ccccc2Cl)c1` (stereo not shown) [Example 28, 2-(aziridine-1-sulfonylamino)-N-(1-(2-chlorophenyl)-2-((3,3-difluorocyclobutyl)amino)-2-oxoethyl)-N-(3-aminosulfonylphenyl)acetamide] displayed an IC50 below 100 nM.
The value for `O=C(NC1CC(F)(F)C1)C(c1ccccc1Cl)N(C(=O)CNS(=O)(=O)N1CC1)c1ccc(F)c(F)c1` (stereo not shown) [Example 29, 2-(aziridine-1-sulfonylamino)-N-(1-(2-chlorophenyl)-2-((3,3-difluorocyclobutyl)amino)-2-oxoethyl)-N-(3,4-difluorophenyl)acetamide] was below 20 nM; that for `O=C(NC1CCC(F)(F)CC1)C(c1ccccc1Cl)N(C(=O)CNS(=O)(=O)N1CC1)c1cccc(F)c1` (stereo not shown) [Example 30, 2-(aziridine-1-sulfonylamino)-N-(1-(2-chlorophenyl)-2-(4,4-difluorocyclohexylamino)-2-oxoethyl)-N-(3-fluorophenyl)acetamide] was below 20 nM.
The value for `C[C@@H]1CN1S(=O)(=O)NCC(=O)N(c1cccc(F)c1)C(C(=O)NC1CCCCC1)c1ccccc1Cl` (stereo partly drawn) [Example 31, 2-(2-chlorophenyl)-N-cyclohexyl-2-(N-(3-fluorophenyl)-2-(((R)-2-methylaziridine)-1-sulfonylamino)acetamido)acetamide] was below 20 nM; that for `C[C@H]1CN1S(=O)(=O)NCC(=O)N(c1cccc(F)c1)C(C(=O)NC1CCCCC1)c1ccccc1Cl` (stereo partly drawn) [Example 32, 2-(2-chlorophenyl)-N-cyclohexyl-2-(N-(3-fluorophenyl)-2-(((S)-2-methylaziridine)-1-sulfonylamino)acetamido)acetamide] was below 20 nM; that for `C[C@H]1CN1S(=O)(=O)NCC(=O)N(c1cc(F)cc(C#N)c1)C(C(=O)NC1CC(F)(F)C1)c1ccccc1Cl` (stereo partly drawn) [Example 33, 2-(2-chlorophenyl)-2-(N-(3-cyano-5-fluorophenyl)-2-(((S)-2-methylaziridine)-1-sulfonylamino)acetamido)-N-(3,3-difluorocyclobutyl)acetamide] was below 100 nM.
Next, `O=C(NC1CC(F)(F)C1)[C@H](c1ccccc1Cl)N(C(=O)[C@H]1CCN(S(=O)(=O)N2CC2)C1)c1cccc(F)c1` [Example 34, (S)-1-(aziridin-1-ylsulfonyl)-N—((S)-1-(2-chlorophenyl)-2-((3,3-difluorocyclobutyl)amino)-2-oxoethyl)-N-(3-fluorophenyl)pyrrolidine-3-carboxamide]: below 20 nM; `O=C(NC1CC(F)(F)C1)[C@@H](c1ccccc1Cl)N(C(=O)[C@H]1CCN(S(=O)(=O)N2CC2)C1)c1cccc(F)c1` [Example 35, (S)-1-(aziridin-1-ylsulfonyl)-N—((R)-1-(2-chlorophenyl)-2-((3,3-difluorocyclobutyl)amino)-2-oxoethyl)-N-(3-fluorophenyl)pyrrolidine-3-carboxamide]: below 20 nM; `O=C(NC1CC(F)(F)C1)[C@H](c1ccccc1Cl)N(C(=O)[C@@H]1CCN(S(=O)(=O)N2CC2)C1)c1cccc(F)c1` [Example 36, (R)-1-(aziridin-1-ylsulfonyl)-N—((S)-1-(2-chlorophenyl)-2-((3,3-difluorocyclobutyl)amino)-2-oxoethyl)-N-(3-fluorophenyl)pyrrolidine-3-carboxamide]: below 20 nM.
For `O=C(NC1CC(F)(F)C1)[C@@H](c1ccccc1Cl)N(C(=O)[C@@H]1CCN(S(=O)(=O)N2CC2)C1)c1cccc(F)c1` [Example 37, (R)-1-(aziridin-1-ylsulfonyl)-N—((R)-1-(2-chlorophenyl)-2-((3,3-difluorocyclobutyl)amino)-2-oxoethyl)-N-(3-fluorophenyl)pyrrolidine-3-carboxamide], the IC50 was below 1000 nM.

For the origin of these results see patent publication US11203586B2, “Iridinesulfonamide compound and use method thereof” (Chia Tai Tianqing Pharmaceutical Group Co., Ltd., priority 2016, dated 2021).
